Measured values published in publication PMC11124870, “Effect of Antioxidants in Medicinal Products on Intestinal Drug Transporters” (Pharmaceutics, 2024).
Several values for one entry are separate records, joined by “and”; a condition that tells them apart may be missing. Equal values may be shown once.

Key:
BCRP = target: T1, BCRP (Homo sapiens, UniProt Q9UNQ0); assay: Vesicular transport assay, 3H-CCK8 uptake in BCRP membrane vesicles; assay type: biochemical; set-up: purchased ThermoFisher Scientific GM0008; host or cells: Sf9 membrane vesicles; details: for % Uptake of 3H-CCK8 BCRP: antioxidant 200 µM, uptake with DMSO set as 100%, mean ± SD, three replicates, membrane vesicles; for inhibition at 20 min, 200 µM: human, Sf9 membrane vesicles overexpressing human BCRP, pH 7, probe 3H-CCK8, 3H-CCK8
T1 sequence (Q9UNQ0 1-655): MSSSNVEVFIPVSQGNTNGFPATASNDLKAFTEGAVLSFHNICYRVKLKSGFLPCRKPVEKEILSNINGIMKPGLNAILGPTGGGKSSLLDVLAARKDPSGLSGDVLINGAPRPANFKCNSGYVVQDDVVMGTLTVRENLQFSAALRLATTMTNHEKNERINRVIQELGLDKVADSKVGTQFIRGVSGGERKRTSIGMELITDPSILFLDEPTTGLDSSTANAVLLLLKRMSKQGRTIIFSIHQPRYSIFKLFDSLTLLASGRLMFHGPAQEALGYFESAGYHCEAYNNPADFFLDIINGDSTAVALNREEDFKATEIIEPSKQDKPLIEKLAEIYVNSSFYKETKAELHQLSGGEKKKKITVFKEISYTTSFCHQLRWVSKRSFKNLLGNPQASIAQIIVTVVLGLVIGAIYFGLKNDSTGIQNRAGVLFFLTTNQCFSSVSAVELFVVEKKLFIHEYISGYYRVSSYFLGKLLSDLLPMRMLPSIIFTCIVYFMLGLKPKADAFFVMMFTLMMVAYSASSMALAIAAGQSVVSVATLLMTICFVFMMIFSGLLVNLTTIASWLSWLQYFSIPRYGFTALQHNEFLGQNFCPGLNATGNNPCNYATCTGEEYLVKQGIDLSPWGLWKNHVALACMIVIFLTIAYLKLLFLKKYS
Protocol: (§1) The vesicular transport assay was performed using Spodoptera frugiperda 9 (Sf9) membrane vesicles overexpressing human P-gp or BCRP, as reported previously with minor modifications. In brief, Isoplate 96-well flat-bottom white plates were preincubated with HBSS containing 0.5 mg/mL BSA on an orbital shaker in a 37 °C incubator at 90 rpm for 60 min followed by washing with HBSS. The assay mixture (75 µL/well) contained a probe substrate and either vehicle control, a known inhibitor of P-gp or BCRP, or an antioxidant, in vesicle uptake buffer (50 mM MOPS-Tris, pH 7.0 + 70 mM KCl + 7.5 mM MgCl2) prewarmed to 37 °C. After addition of the assay mixture, 5 μL/well (5 μg/μL stock concentration of the vesicles) of vesicles overexpressing human P-gp or BCRP was added. Uptake assays were initiated by adding 20 μL of either 25 mM adenosine triphosphate (ATP) or 25 mM adenosine monophosphate (AMP) to a final concentration of 5 mM. Plates were incubated at 37 °C for 20 min with orbital shaking (90 rpm). After 20 min, the uptake was quenched by adding 150 μL of ice-cold wash buffer (40 mM MOPS-Tris, pH 7.0 + 70 mM KCl) to each well, and the mixture was transferred to a 96-well filtration plate. Vacuum was applied, and the vesicles were washed three times with wash buffer. Vesicles were then lysed with 100 µL of MicroScint-20.

[1] = Table S1; source not stated; cited from earlier work
OATP2B1 [2] = target: T2, OATP2B1 (Homo sapiens, UniProt O94956); assay: 3H-valsartan uptake inhibition in HEK-293-OATP2B1 cells; details: IC50 OATP2B1, valsartan uptake, substrate 3H-valsartan, three independent experiments
T2 sequence (O94956 1-709): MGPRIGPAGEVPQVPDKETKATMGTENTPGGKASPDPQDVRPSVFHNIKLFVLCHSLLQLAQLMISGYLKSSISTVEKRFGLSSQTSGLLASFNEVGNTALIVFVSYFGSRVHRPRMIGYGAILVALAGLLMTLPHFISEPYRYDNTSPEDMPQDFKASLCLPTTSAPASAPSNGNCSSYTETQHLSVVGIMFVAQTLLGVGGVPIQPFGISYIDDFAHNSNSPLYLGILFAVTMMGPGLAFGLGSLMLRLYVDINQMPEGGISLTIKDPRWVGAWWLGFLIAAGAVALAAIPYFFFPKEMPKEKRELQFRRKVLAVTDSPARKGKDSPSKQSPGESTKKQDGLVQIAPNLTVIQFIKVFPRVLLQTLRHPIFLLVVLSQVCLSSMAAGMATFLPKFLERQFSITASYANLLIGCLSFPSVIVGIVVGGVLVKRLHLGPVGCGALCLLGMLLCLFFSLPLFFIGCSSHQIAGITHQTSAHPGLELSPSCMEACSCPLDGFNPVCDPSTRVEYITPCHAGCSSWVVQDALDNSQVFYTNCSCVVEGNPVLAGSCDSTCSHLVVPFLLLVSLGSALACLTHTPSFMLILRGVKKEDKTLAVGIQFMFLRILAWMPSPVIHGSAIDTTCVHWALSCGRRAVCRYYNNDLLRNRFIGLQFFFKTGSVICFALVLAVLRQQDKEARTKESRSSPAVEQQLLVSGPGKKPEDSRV
Protocol: (§2) The uptake transporter assay was performed as reported previously with minor modifications [15]. A day before the uptake assay, Isoplate 96-well plates were coated with poly-D-lysine in PBS with calcium and magnesium and washed with PBS. […] An assay mixture of ^3H-estrone sulfate, a known inhibitor of OATP2B1, or an antioxidant was prepared and incubated in a 37 °C incubator for 10 min. The cells were washed with ice-cold HBSS three times and incubated with MicroScint fluid on a shaker for 1 h for cell lysis. Radioactivity was measured by liquid scintillation counting with a MicroBeta^2® microplate counter. […] On the day of experiment, cells were washed twice with 0.4 mL of HBSS per well and then pre-incubated for 10–20 min in 0.4 mL of HBSS. […] Uptake of ^3H-valsartan was stopped after 15 min by washing three times with ice-cold HBSS. Cells were lysed in 750 µL of lysis buffer (0.1 N NaOH and 0.1% SDS in double-distilled water) per well while shaking for 60 min. A total of 690 µL of the lysate from each well was then added to 2.5 mL of EcoLite scintillation fluid. The radioactivity was determined on a LS6500 Scintillation Counter (Beckman Coulter). Protein concentration was measured with a Pierce™ BCA protein assay kit. The radioactivity in each well was corrected for protein concentration. All values were determined in triplicate, and the final values are expressed as % uptake relative to negative control (1% DMSO).
(§3) Antioxidants were screened at a concentration of 200 μM.

OATP2B1 [3] = target: T2, OATP2B1; assay: Uptake transporter assay, 3H-estrone sulfate uptake in HEK-293-OATP2B1 cells; details: for % Uptake of 3H-ES OATP2B1: antioxidant 200 µM, uptake with DMSO set as 100%, mean ± SD, three replicates, HEK-293-OATP2B1 cells
Protocol: as §2, §3

[4] = Estimation of intestinal luminal concentration (Igut), dose/250 mL; details: estimated from maximum oral amount (AP 10 mg, BHA 8 mg) in 250 mL intestinal fluid
Protocol: Igut is intestinal luminal concentration estimated as dose/250 mL. The Igut concentration was estimated using the following equation: Igut=A÷MW×V×10^6 where Igut is the estimated intestinal luminal concentration (µM), A is the amount of antioxidant in an oral dosage (mg), MW is the molecular weight, and V is the volume of intestinal fluid, i.e., 250 mL.

P-gp [5] = target: T3, P-gp (Homo sapiens, UniProt P08183); assay: Vesicular transport assay, 3H-NMQ uptake in P-gp membrane vesicles; assay type: biochemical; details: for % Uptake of 3H-NMQ P-gp: antioxidant 200 µM, uptake with DMSO set as 100%, mean ± SD, three replicates, membrane vesicles; for inhibition at 20 min, 200 µM: human, Sf9 membrane vesicles overexpressing human P-gp, pH 7, probe 3H-NMQ, 3H-NMQ
T3 construct: purchased ThermoFisher Scientific GM0015; host or cells: Sf9 membrane vesicles
Protocol: as §1

P-gp [6] = system: P-gp; set-up: method as in PMID 19944162; details: cited from earlier work

T3 sequence (P08183 whole entry): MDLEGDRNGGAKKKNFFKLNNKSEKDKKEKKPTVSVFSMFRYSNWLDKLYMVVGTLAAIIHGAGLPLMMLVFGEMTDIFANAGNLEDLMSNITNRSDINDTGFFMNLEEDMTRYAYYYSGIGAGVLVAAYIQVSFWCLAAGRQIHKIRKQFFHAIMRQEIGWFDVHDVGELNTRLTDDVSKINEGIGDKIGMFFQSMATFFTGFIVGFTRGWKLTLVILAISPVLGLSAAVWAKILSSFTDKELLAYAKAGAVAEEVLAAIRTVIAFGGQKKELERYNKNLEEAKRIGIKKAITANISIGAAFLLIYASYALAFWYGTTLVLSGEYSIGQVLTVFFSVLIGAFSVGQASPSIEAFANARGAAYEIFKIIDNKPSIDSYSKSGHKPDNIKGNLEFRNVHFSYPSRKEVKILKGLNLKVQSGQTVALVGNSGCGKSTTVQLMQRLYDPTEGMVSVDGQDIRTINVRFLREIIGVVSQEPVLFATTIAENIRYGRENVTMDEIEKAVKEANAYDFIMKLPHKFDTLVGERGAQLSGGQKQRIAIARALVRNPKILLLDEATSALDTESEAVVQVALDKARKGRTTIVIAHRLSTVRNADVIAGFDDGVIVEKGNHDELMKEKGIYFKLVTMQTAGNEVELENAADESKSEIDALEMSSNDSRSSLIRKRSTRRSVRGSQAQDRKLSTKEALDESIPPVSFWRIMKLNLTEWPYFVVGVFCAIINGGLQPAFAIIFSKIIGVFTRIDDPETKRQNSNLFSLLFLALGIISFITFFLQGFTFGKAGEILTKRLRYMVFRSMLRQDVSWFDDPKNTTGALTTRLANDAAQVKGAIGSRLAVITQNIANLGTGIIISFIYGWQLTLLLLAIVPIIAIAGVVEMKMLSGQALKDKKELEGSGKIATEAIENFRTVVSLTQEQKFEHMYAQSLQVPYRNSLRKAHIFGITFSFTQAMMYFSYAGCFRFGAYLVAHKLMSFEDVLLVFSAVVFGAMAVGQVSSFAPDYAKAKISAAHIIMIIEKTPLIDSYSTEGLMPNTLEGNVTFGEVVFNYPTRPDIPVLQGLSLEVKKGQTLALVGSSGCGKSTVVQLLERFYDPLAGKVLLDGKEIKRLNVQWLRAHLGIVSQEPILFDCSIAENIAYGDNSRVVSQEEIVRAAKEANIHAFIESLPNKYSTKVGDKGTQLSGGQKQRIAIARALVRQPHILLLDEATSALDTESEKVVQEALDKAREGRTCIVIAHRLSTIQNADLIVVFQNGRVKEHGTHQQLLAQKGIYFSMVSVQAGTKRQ

IC50 (OATP2B1 [2])	IC50 (OATP2B1 [3]; IC50 OATP2B1, substrate 3H-estrone sulfate, mean ± SD of three independent experiments)	IC50 (OATP2B1 [3]; IC50 with preincubation, OATP2B1 expressing cells pre-incubated 30 minutes, mean ± SD of three independent experiments)	IC50 at 10 min (OATP2B1 [3]; human, HEK-293 cells that express OATP2B1, probe 3H-estrone sulfate, IC50 without preincubation, OATP2B1 expressing cells, mean ± SD of three independent experiments)	inhibition at 10 min, 200 µM (OATP2B1 [3]; human, HEK-293 cells that express OATP2B1, probe 3H-estrone sulfate, Inhibition of OATP2B1, 200 µM, 3H-estrone sulfate)	Max Intestinal Conc (µM) in 250 mL Fluid [4]	SMILES	% Uptake of 3H-CCK8 BCRP (BCRP)	inhibition at 20 min, 200 µM (BCRP)	LogP [1]	Effect of 30 min pre-incubation on inhibition potency (OATP2B1 [3]; OATP2B1-expressing cells pre-incubated for 30 min)	% Uptake of 3H-ES OATP2B1 (OATP2B1 [3])	% Uptake of 3H-NMQ P-gp (P-gp [5])	inhibition at 20 min, 200 µM (P-gp [5])	P-gp inhibition in ATPase assays (P-gp [6])	inhibition at 10 min, 200 µM (OATP2B1 [3]; human, HEK-293 cells that express OATP2B1, probe 3H-estrone sulfate)
26 µM and 25.5 µM	23 ± 10 µM	95 ± 11.7 µM	159 ± 65.9 µM	> 50%	96.5 µM	CCCCCCCCCCCCCCCC(=O)OC[C@H](O)[C@H]1OC(=O)C(O)=C1O [Ascorbyl palmitate (AP), Ascorbyl palmitate]	50.9 ± 9.9%	< 50%	6	did not further affect their inhibition potency	28.3 ± 11.2%	86.9 ± 12.4%	< 50%	–	–
–	–	–	–	–	–	CC(C)c1cc2c(c(O)c1O)[C@@]1(C(=O)O)CCCC(C)(C)[C@@H]1CC2 [Carnosic acid]	4.5 ± 4.8%	≥ 50%	4.9	–	18.8 ± 5.6%	0.0 ± 10.1%	≥ 50%	identified as a P-gp inhibitor	≥ 50%
